Legend:
[1] = system: carrageenan-induced hyperalgesia model; assay: Carrageenin-induced hyperalgesia, rat paw pressure test (Randall-Selitto); assay type: in vivo; settings: dosed orally at 30 mg/kg
Description: Nociceptive pressure thresholds were measured in the rat paw pressure test using an analgesimeter (Randall-Selitto method: Randall L.O. and Selitto J.J., "A method for measurement of analgesic activity on inflamed tissue," Arch. Int. Pharmacodyn., 1957;4:409-419). Male Sprague-Dawley rats (70-90 g) were trained on this apparatus before the test day. Pressure was gradually applied to the hind paw of each rat and nociceptive thresholds were determined as the pressure (g) required to elicit paw withdrawal. A cutoff point of 250 g was used to prevent any tissue damage to the paw. On the test day, two to three baseline measurements were taken before animals were administered 100 µL of 2% carrageenin by intraplantar injection into the right hind paw. […] Animals were dosed with either gabapentin ([…].), morphine (3 mg/kg, s.c.) or saline at 3.5 hours after carrageenin and nociceptive thresholds were examined at 4, 4.5, and 5 hours postcarrageenin.
(R)-2-Aza-spiro[4.5]decane-4-carboxylic acid hydrochloride was tested in the above carrageenan-induced hyperalgesia model. The compound was dosed orally at 30 mg/kg, and 1 hour postdose gave a percent of maximum possible effect (MPE) of 53%. At 2 hours postdose, it gave only 4.6% of MPE.

[2] = system: Carrageenan Induced Thermal Hyperalgesia Model (rat); assay: Carrageenan induced thermal hyperalgesia model; assay type: in vivo

SMILES | percent of maximum possible effect (MPE) ([1]; 1 hour postdose) | percent of maximum possible effect (MPE) ([1]; 2 hours postdose) | Carrageenan Induced Thermal Hyperalgesia Model (rat). %MPE* at time postdose @30 mg/Kg p.o. ([2]; 1h postdose) | Carrageenan Induced Thermal Hyperalgesia Model (rat). %MPE* at time postdose @30 mg/Kg p.o. ([2]; 2h postdose)
Cl.O=C(O)[C@H]1CNCC12CCCCC2 [(R)-2-Aza-spiro[4.5]decane-4-carboxylic acid hydrochloride] | 53% | 4.6% |  | 
NCC1(CC(=O)O)Cc2ccccc2C1 [(2-aminomethyl-indan-2-yl)-acetic acid] |  |  | 28.5 (1h) %MPE | 10 (2h) %MPE
